Values of other authors in patent US20240165107A1 (Cipla Limited, priority 2021, published 2024).
Read-outs that look alike come from different tables or passages of the source.

Columns and labels:
[1] = rats; immediate release cariprazine capsules
[2] = molecular target: T1, serotonin 5-HT2C receptors (Homo sapiens, UniProt P28335)
T1 sequence (P28335 33-458): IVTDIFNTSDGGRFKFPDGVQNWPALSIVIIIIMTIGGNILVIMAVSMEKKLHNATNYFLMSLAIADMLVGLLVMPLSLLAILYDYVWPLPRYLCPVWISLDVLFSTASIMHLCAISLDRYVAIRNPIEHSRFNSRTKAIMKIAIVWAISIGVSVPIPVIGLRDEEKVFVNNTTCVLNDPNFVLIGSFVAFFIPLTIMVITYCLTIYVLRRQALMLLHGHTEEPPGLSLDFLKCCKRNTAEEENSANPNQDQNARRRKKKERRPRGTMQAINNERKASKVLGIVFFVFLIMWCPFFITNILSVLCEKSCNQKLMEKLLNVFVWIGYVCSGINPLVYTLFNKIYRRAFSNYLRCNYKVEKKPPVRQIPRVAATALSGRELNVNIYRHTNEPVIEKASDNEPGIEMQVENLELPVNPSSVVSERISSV

[3] = dogs; immediate release cariprazine capsules
[4] = molecular target: T2, alA- adrenergic receptors (Homo sapiens, UniProt P35348)
T2 sequence (P35348 1-466): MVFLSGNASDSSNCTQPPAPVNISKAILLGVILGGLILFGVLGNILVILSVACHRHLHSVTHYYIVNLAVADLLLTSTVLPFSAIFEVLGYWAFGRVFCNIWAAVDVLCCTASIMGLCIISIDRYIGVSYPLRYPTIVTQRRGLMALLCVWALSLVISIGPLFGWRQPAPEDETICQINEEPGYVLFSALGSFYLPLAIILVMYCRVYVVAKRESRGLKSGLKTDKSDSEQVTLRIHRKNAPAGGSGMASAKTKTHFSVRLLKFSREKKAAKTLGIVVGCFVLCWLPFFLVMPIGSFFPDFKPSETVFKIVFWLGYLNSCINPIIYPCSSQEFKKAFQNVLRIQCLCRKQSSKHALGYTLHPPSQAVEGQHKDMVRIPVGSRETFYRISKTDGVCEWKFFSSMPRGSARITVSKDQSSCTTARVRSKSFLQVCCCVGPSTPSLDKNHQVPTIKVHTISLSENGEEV

5-HT2B receptors = 5-HT2B receptors (Homo sapiens, UniProt P41595); conditions: antagonist
Chain of 5-HT2B receptors (P41595 whole entry): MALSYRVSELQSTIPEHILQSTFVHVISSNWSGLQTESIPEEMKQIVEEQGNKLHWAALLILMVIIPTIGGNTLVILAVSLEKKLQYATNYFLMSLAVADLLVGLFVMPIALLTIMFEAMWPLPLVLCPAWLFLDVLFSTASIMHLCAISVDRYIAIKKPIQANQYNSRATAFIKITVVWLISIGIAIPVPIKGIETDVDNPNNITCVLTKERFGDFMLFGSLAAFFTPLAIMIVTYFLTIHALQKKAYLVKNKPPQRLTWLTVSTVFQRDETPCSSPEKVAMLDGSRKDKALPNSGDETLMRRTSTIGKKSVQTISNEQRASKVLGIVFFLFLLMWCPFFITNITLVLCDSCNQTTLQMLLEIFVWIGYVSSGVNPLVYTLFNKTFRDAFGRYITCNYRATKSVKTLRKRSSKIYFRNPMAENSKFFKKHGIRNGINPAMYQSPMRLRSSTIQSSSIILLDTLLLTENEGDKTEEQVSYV

[5] = test system: cholinergic muscarinic receptors
5-HT2A receptors = 5-HT2A receptors (Homo sapiens, UniProt P28223); conditions: antagonist
Chain of 5-HT2A receptors (P28223 whole entry): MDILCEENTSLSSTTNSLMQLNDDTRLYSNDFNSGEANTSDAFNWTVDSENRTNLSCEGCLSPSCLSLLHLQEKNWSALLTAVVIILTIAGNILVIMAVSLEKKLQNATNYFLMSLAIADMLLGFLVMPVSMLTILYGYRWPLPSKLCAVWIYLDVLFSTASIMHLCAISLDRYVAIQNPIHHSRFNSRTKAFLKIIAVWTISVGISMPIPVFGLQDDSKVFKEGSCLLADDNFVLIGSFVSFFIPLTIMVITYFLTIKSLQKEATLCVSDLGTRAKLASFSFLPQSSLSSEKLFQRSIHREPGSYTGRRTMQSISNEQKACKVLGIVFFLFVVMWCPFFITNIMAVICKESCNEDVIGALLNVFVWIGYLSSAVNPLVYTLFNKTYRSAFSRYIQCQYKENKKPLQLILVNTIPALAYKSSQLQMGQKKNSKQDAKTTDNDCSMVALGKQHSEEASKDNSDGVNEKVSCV

SMILES: CN(C)C(=O)N[C@H]1CC[C@H](CCN2CCN(c3cccc(Cl)c3Cl)CC2)CC1 [Cariprazine, trans-N-{4-[2-[4-(2,3-dichlorophenyl)piperazine-1-yl]ethyl]cyclohexyl}-N′,N′-dimethylurea]
- oral absolute bioavailability [1]: 52-63%
- binding affinity [2]: lower binding affinity
- oral absolute bioavailability [3]: 64-80%
- binding affinity [4]: lower binding affinity
- binding affinity (5-HT2B receptors): high
- affinity [5]: no appreciable affinity
- binding affinity (5-HT2A receptors): moderate
